Read-outs that look alike come from different tables or passages of the source.
Experiments:
[1] = CF transport assay in EYPC⊃CF vesicles (carrier activity); format: biochemical; design: key to Carrier activity: ‐ – ‐: No detectable activity at pH 5.5 and 7.4; settings: for heptaLys Ymax / EC50 / HeptaArg Y max / PolyArg Y max / Protamine Y max / HeptaArg Ymax, pH 5.5 / PolyArg Ymax, pH 5.5 / Protamine Ymax, pH 5.5: CF assay; for heptaLys Ymax: 13 µM phospholipids; for heptaLys Ymax / HeptaArg Y max / PolyArg Y max / Protamine Y max / HeptaArg Ymax, pH 5.5: ±2% error (SD); for HeptaArg Y max: 13 µM lipid, 10 mM Hepes or Tris, 10 min, Hill fit, triplicates; for heptaLys E / PolyArg E (activation efficiency) / Protamine E (activation efficiency) / HeptaArg E (activation efficiency) / HeptaArg E, pH 5.5 / PolyArg E, pH 5.5 / Protamine E, pH 5.5: f = 20.6; for heptaLys E / PolyArg E (activation efficiency) / Protamine E (activation efficiency) / HeptaArg E (activation efficiency) / HeptaArg E, pH 5.5: 10% error; for HeptaArg E (activation efficiency): E = Ymax(pEC50/f); for Transport activity (in words): EYPC⊃CF vesicles, neutral pH, carrier then cargo; for Onset for transport activity (carrier concentration): vesicles, heptaArg dose-response curves (Figure 2b)
From the text: The capability of POMs to act as membrane carriers was explored first in large unilamellar vesicles (LUVs) loaded with carboxyfluorescein (CF).^[ [54], [55] ^] We selected […] representative cationic peptides, heptaarginine (heptaArg), heptalysine (heptaLys), protamine, and polyarginine (polyArg), as test cargos. Inside the LUVs, the CF dye was encapsulated at self‐quenching concentrations. With a suitable carrier, heptaArg can be taken up into the vesicles, bind with entrapped CF, and shuttle back to the exterior, diluting the previously quenched CF, and thereby restoring its fluorescence (Figure 1c). In the time‐resolved fluorescence experiments (Figure 2a), to test whether a particular POM acts as molecular carrier, the CF emission was continuously monitored during the addition of the inorganic carrier (t = 60 s) and after injection of the impermeable selected cargo (t = 120 s). Toward the end of the experiment (t = 600 s), the surfactant Triton X‐100 was added to release all the entrapped CF and allow normalization of the intensity data.
A thin lipid film was prepared by evaporating a lipid solution of EYPC (egg yolk phosphatidylcholine, 25 mg) in CHCl3 (1 mL) with a stream of nitrogen and then dried in vacuo overnight. The dry film was rehydrated with 1 mL buffer (50 mM CF, 10 mM Hepes, pH 7.4 or 50 mM CF, 10 mM Tris, pH 7.4) for 30 min at room temperature, subjected to freeze–thaw cycles (7 times) and extrusions (15 times) through a polycarbonate membrane (pore size 100 nm). Extravesicular components were removed by size exclusion chromatography (NAP‐25 column Sephadex G‐25 DNA grade) with 10 mM Hepes, 107 mM NaCl, pH 7.4, or 10 mM Hepes, 107 mM NaCl, pH 7.4. Phospholipid concentration was calculated by the Stewart assay.^[ [81] ^]
Acidic vesicles were prepared analogously but the rehydration and elution buffer were 50 mM CF, 10 mM Mes, pH 5.5 and 10 mM Mes, 107 mM NaCl, pH 5.5. respectively.
Vesicles stock solutions (5–10 µL) were diluted with the corresponding buffer in a disposable plastic cuvette and gently stirred (total volume 2000 µL, final lipid concentration 13 µM). Carboxyfluorescein fluorescence was monitored at λ em = 517 nm (λ ex = 492 nm) as a function of time after addition of POMs at 60 s, analyte at 120 s and Triton X‐100 (24 µL 1.2% wt/vol) at 600 s to lyse the vesicles, for calibration. Fluorescence intensities were normalized to fractional emission as (1) It=It−I0/I∞−I0 where I 0 = I t before POM addition and […] after lysis. For Hill analysis, I t before lysis was defined as transport activity, Y, and plotted against POM concentration, c, and fitted to the Hill Equation (2), to afford the activity in absence of POM, Y 0, the maximal activity, Y max, the concentration needed to achieve 50% of maximal activity, EC 50, and the Hill coefficient, n (2) Y=Y0+Ymax−Y0/1+EC50/c^n
In the transport measurements, where different carriers (POMs) are tested with the same cargo, the activator efficiency (E) is determined by their capacity to transport the impermeable cargo to the intravesicular region and is characterized by Y max, its maximal activity, and EC 50, the effective activator concentration. An ideal carrier reaches high Y max at low EC 50. To count both factors, the activator efficiency is defined as (3) E=YmaxpEC50/f were pEC 50 is the negative logarithm of the EC 50, and f a scaling factor, which was set to 20.6 to calibrate the highest (previously known) activation efficiency, E, as 10.^[ [55] ^]

[2] = system: cationic oligopeptides; assay: ITC, POM with the peptides (general statement); format: binding
Procedure: To affect membrane transport, any carrier needs to display an affinity toward the cargo as well as toward the lipid bilayer. Accordingly, the interaction between [PVW11]^4‒ and [SiMoW11]^4‒ and the peptides was analyzed by isothermal titration calorimetry (ITC, Figure 2c,d; and Figures S10 and S11, Supporting Information). […] (enthalpically driven, interaction with the peptide backbones, Table S6, Supporting Information) and Coulombic interactions (interaction with arginine and lysine side chains). The strong but reversible intermolecular interactions between the low‐charged POMs and the cationic oligopeptides present an interesting finding, which was measured for both, oligo‐ and polypeptides. Previous ITC studies have focused only on the binding of proteins with highly charged and therefore weakly chaotropic POMs (n < −6, Table S3, Supporting Information), where electrostatic interactions were implied as main driving force.^[ [65], [66], [67], [68], [69], [70], [71], [72], [73] ^]
All experiments were performed with a VP‐ITC MicroCalorimeter from MicroCal, Int,. at atmospheric pressure and 298.15 K. Solutions were degassed and thermostatic prior to the titration experiments in a ThermoVac accessory. […] Dilution heats were determined by titration of the POM into buffer and subtracted from the reaction heat. […]

[3] = Hydrolysis/stability of POMs in buffer by NMR; settings: for Hydrolysis/stability pH 5.5: 10 mM Mes, 107 mM NaCl, long-term (24 h and longer)
Procedure: First, their long‐term (24 h and longer) fate in aqueous solution (slightly acidic and neutral) was investigated by applying the active NMR nuclei in their composition (Table S9 and Figures S24–S37, see the Supporting Information for details).
NMR-spectroscopic characterization of identity and stability
NMR spectroscopy for all POMs tested was performed under experimental conditions.

[4] = EYPC (zwitterionic), heptaLys cargo
[5] = EYPC (zwitterionic), heptaLys cargo, 5% error (SD), read-out: heptaLys EC50
[6] = EYPC LUVs, 10 µM heptaArg, 107 mM NaCl, pH 7.4
[7] = EYPC LUVs, 0.1 µM polyArg, pH 7.4, 5% error (SD), read-out: PolyArg EC 50
[8] = EYPC LUVs, 0.1 µM polyArg, pH 7.4
[9] = EYPC LUVs, 1 µM protamine, pH 7.4, 5% error (SD), read-out: Protamine EC 50
[10] = EYPC LUVs, 1 µM protamine, pH 7.4
[11] = EYPC LUVs, 10 µM heptaArg, pH 7.4, carrier concentration for 50% of Ymax, 5% error (SD), read-out: HeptaArg EC 50
[12] = EYPC vesicles, 10 µM heptaArg, 10 mM Mes, 107 mM NaCl, pH 5.5
[13] = EYPC vesicles, heptaArg cargo, 10 mM Mes, 107 mM NaCl, pH 5.5, 5% error (SD), read-out: HeptaArg EC50, pH 5.5
[14] = EYPC vesicles, polyArg cargo, 10 mM Mes, 107 mM NaCl, pH 5.5
[15] = EYPC vesicles, polyArg cargo, pH 5.5, read-out: PolyArg EC50, pH 5.5
[16] = EYPC vesicles, protamine cargo, 10 mM Mes, 107 mM NaCl, pH 5.5
[17] = EYPC vesicles, protamine cargo, pH 5.5, read-out: Protamine EC50, pH 5.5
[18] = EYPC LUVs, 10 µM heptaArg, pH 7.4
[19] = EYPC vesicles, protamine, pH 5.5
[20] = 3 mM POM, 10 mM Mes pH 5.5, 31P NMR integration
[21] = 3 mM POM, 10 mM Tris-HCl pH 7.5, 31P NMR integration

| Substance | heptaLys Ymax [1, 4] [%] | EC50 [1, 5] [µM] | HeptaArg Y max [1, 6] [%] | EC50 [1, 7] [µM] | PolyArg Y max [1, 8] [%] | EC50 [1, 9] [µM] | Protamine Y max [1, 10] [%] | EC50 [1, 11] [µM] | HeptaArg Ymax, pH 5.5 [1, 12] [%] | EC50 [1, 13] [µM] | PolyArg Ymax, pH 5.5 [1, 14] [%] | EC50 [1, 15] [µM] | Protamine Ymax, pH 5.5 [1, 16] [%] | EC50 [1, 17] [µM] | heptaLys E [1, 4] | PolyArg E (activation efficiency) [1, 8] | Protamine E (activation efficiency) [1, 10] | HeptaArg E (activation efficiency) [1, 18] | Transport activity (in words) [1] | Hydrolysis/stability pH 5.5 ([3]; NMR) | also measured |
| --- | --- | --- | --- | --- | --- | --- | --- | --- | --- | --- | --- | --- | --- | --- | --- | --- | --- | --- | --- | --- | --- |
| K4[α‐Si^IVMo^VIW^VI 11O40]·24H2O [[SiMoW11]^4‒] | 54 | 22 | 66 | 13 | 94 | 19 | 72 | 17 | 66 | 9 | 86 | 5 | 80 | 14 | 4.4 | 8.6 | 6.0 | 5.7 | triggered the desired increase in fluorescence characteristic for cargo transport | Stable | HeptaArg E, pH 5.5 ([1]; EYPC vesicles, pH 5.5): 6.6; PolyArg E, pH 5.5 ([1]; EYPC vesicles, pH 5.5): 9.7; Protamine E, pH 5.5 [1, 19]: 7.3; Onset for transport activity (carrier concentration) [1]: around 1 µM; Supramolecular interaction with the peptides (order of magnitude) [2]: ~10^7 M ^−1; Solution stability in Mes pH 5.5 (183W NMR) ([3]; 10 mM POM, 33 mM Mes pH 5.5 (final pH 5), only signals of intact anion, acquisition 60 h): solution stability for up to 60 h; % parent anion, Tris-HCl pH 7.5 (183W NMR) ([3]; 10 mM POM, 33 mM Tris pH 7.5 (final pH 6.9), 183W NMR signal intensities, acquisition 60 h): 45%; Hydrolysis at pH 7.5 (fraction hydrolysed) ([3]; neutral buffer pH 7.5, high concentration, NMR, after 24 h): 45% |
| K4[α‐P^VV^VW^VI 11O40]·4H2O [[PVW11]^4‒] | 62 | 38 | 84 | 12 | 88 | 41 | 88 | 49 | 79 | 28 | 91 | 5 | 79 | 19 | 4.3 | 8.2 | 5.9 | 5.3 | triggered the desired increase in fluorescence characteristic for cargo transport | Stable | HeptaArg E, pH 5.5 ([1]; EYPC vesicles, pH 5.5): 5.9; PolyArg E, pH 5.5 ([1]; EYPC vesicles, pH 5.5): 10.1; Protamine E, pH 5.5 [1, 19]: 6.6; Onset for transport activity (carrier concentration) [1]: around 1 µM; Supramolecular interaction with the peptides (order of magnitude) [2]: ~10^7 M ^−1; % monolacunary [PVWVI11O39]7‒ formed, Mes pH 5.5 after 1 day [3, 20]: 1%; % monolacunary [PVWVI11O39]7‒ formed, Mes pH 5.5 after 5 days [3, 20]: 1%; % parent anion, Mes pH 5.5 after 1 day [3, 20]: 99%; % parent anion, Mes pH 5.5 after 5 days [3, 20]: 99%; % parent (active) anion, Mes pH 5.5 freshly prepared ([3]; 3 mM POM, 10 mM Mes pH 5.5, 31P NMR signal integration, appr. 3 h after dissolution): 99%; % parent anion, Tris-HCl pH 7.5 after 1 day [3, 21]: 71%; % parent anion, Tris-HCl pH 7.5 after 5 days [3, 21]: 68% |
| Na3[α‐P^VW^VI 12O40]·nH2O [[PW12]^3‒] | – | – | – | – | – | – | – | – | – | – | – | – | – | – | – | – | – | – | neither an interaction with the membrane nor cargo transport | to [P^VW^VI 11O39]^7‒ | Carrier activity ([1]; EYPC vesicles, pH 5.5 and 7.4, cargos heptaArg, protamine, polyArg ([AlMo6]: heptaArg and protamine only)): ‐ – ‐ ^k) , ^l); % monolacunary [PVWVI11O39]7‒ formed, Mes pH 5.5 after 1 day [3, 20]: 61%; % monolacunary [PVWVI11O39]7‒ formed, Mes pH 5.5 freshly prepared [3, 20]: 61%; % parent anion, Mes pH 5.5 after 1 day [3, 20]: 5%; % parent anion, NaOAc/HOAc pH 4 after 1 day ([3]; 3 mM POM, 10 mM NaOAc/HOAc pH 4, 31P NMR integration): 28% |

Reference: paper PMC11475408, “All‐Inorganic Polyoxometalates Act as Superchaotropic Membrane Carriers” (Advanced Materials (Deerfield Beach, Fla.), 2023)
